Source: US20110081405A1, “Zeolite Formulation And Use Thereof For The Prevention And Therapy Of Diseases Caused By Infections With Herpes Simplex Virus Type 1 And Type 2” (priority 2008, published 2011)

Experiments:
[1] = test system: HSV-2 (strain G); assay: Viral plaque inhibition assay, zeolite coincubated with HSV-2, supernatants added to cells; type: cell-based; settings: keratinocytes, supernatants of HSV-2 coincubated 18 hours with 5 μg/ml zeolite or 50 μg/ml Acyclovir, Mordenite 0.1-0.5 μm, P, X, A 0.5-5 μm
Method: (§1) Testing of Antiviral Activities of Synthetic Zeolites by the Viral Plaque Inhibition Assay—the Antiviral Activity of Zeolites when Coincubated with HSV In Vitro
(§2) Epidermal cell cultures of fibroblasts and keratinocytes were grown in vitro from healthy skin samples, remnants from operations. Fibroblast cultures were grown in Dulbecco modified Eagle's medium (DMEM) containing Glutamax I (L-alanin-L-glutamine) and sodium pyruvate, […] and pyridoxine, supplemented with 10% fetal calf serum (FCS), 0.25 μg gentamycin and 100 UI/L penicillin. Keratinocytes are grown in a mixture of DMEM, Hams F12 in the 3:1 ratio with the addition of Glutamax I, complemented with 9% of FCS, epidermal growth factor (EGF), insulin, hydrocortisone, triiodothyronine, adenine, and antibiotics. The antiviral effect was determined on primary cells (primary fibroblasts and keratinocytes) grown in vitro from the explants of healthy skin, and also on cell lines: fibroblasts cell line MRC-5, HEp-2 cell line, and Vero cell line.
(§3) MRC-5, Vero, HEp-2, and keratinocyte cell lines were all obtained from the American Type Culture Collection-ATCC, and grown in T-75 flasks at 37° C. in a humidified incubator with 5% CO2.
(§4) HSV-1 (strain F) and HSV-2 (strain G), both obtained from the ATCC, were propagated in HEp-2 cells and their titres checked in same cells (H. Kirchner, C. Kleinicke, H. Northoff. J. Gen. Virol. 1977, 37, 647.). 0.1, 0.5, 1, 2, 4, or 5 Multiplicity of infection (MOI) of HSV-1 or HSV-2 was used to infect Vero cells, keratinocyte cell lines and MRC-5 cell lines, as described below.
(§5) Synthetic zeolites: A, Mordenite, P and X were tested in vitro for an anti HSV activity. Mordenite was used in two characteristic size of particles (0.1-0.5 μm and 0.5-5 μm) and other zeolites in 0.5-5 μm particle size. Zeolites were used in the concentrations of 5, 50, 500 ng/ml; 1, 5, 50, 100, 500 μg/ml; 1, 2, 10, 50 mg/ml in growth medium.
(§6) The ability of HSV preincubated with zeolite to infect cells permissive to infection (permissive cells) and cell lines was tested in in vitro experiments.
(§7) Viral stock containing the HSV-1 or HSV-2 (in MOI described above), diluted in a minimal volume of growth medium containing 5% FCS was used for the coincubation with zeolite for 3-20 hours at 4° C. The pH was maintained at all times to be at around 7.00. The sterile cuvettes containing zeolite+HSV were then centrifuged at 4.000 rpm/30 minutes to remove any particulate content in supernatants. Those supernatants (in 200 μl volume) were then added to the MRC-5, HEp-2, or Vero cell lines (grown in 24 well plate to 85% confluency) for 1 hour at 37° C. Parallel cultures contained cells infected with 200 μl of HSV-1 or HSV-2 under the same conditions as for the addition of supernatants (above). After one hour incubation, the growth medium containing 9% FCS was added, and cells cultivated for another 3 days (to examine for any CPE by light microscopy). Growth medium was then aspirated from the wells, and 100 μl of 0.2% crystal violet dye, diluted in phosphate buffered saline (PBS), was added to each well. After half-hour exposure to the dye, the wells were washed twice with double distilled water, air-dried, and the HSV plaques in cell cultures were counted using Olympus light microscope (magnification of 40×). The CPE produced by the infection of permissive cells was characterised by morphological changes in host cells e.g. cell rounding, swelling, detachment from the surface, formation of syncicia, plaques, caused by the increased number of newly formed viral particles. Plaques formed by HSV destroying cells were easily distinguished from unaffected cell layers.

[2] = test system: HSV-1 (strain F); assay: Viral plaque inhibition assay, zeolite coincubated with HSV-1, supernatants added to cells; type: cell-based; settings: keratinocytes, supernatants of HSV-1 coincubated 18 hours with 5 μg/ml zeolite or 50 μg/ml Acyclovir, Mordenite 0.1-0.5 μm, P, X, A 0.5-5 μm
Method: as §1, §2, §3, §4, §5, §6, §7

[3] = background statement; cited from earlier work

SMILES	decrease in percentage of number of HSV-2 plaques ([1]; 0.1 MOI)	decrease in percentage of number of HSV-2 plaques ([1]; 0.5 MOI)	decrease in percentage of number of HSV-2 plaques ([1]; 1 MOI)	decrease in percentage of number of HSV-2 plaques ([1]; 2 MOI)	decrease in percentage of number of HSV-2 plaques ([1]; 4 MOI)	decrease in percentage of number of HSV-2 plaques ([1]; 5 MOI)	decrease in number of HSV-1 plaques ([2]; 0.1 MOI)	decrease in number of HSV-1 plaques ([2]; 0.5 MOI)	decrease in number of HSV-1 plaques ([2]; 1 MOI)	decrease in number of HSV-1 plaques ([2]; 2 MOI)	decrease in number of HSV-1 plaques ([2]; 4 MOI)	decrease in number of HSV-1 plaques ([2]; 5 MOI)	biavalibility of the drug [3]
Nc1nc2c(ncn2COCCO)c(=O)[nH]1 [Acyclovir, 9-[(2-hydroxyetoxy)methyl]guanine]	73%	72%	70%	65%	48%	42%	71	71	61	58	43	36	–
CC(=O)OCC(CCn1cnc2cnc(N)nc21)COC(C)=O [famcyclovir]	–	–	–	–	–	–	–	–	–	–	–	–	77%
CC(C)[C@H](N)C(=O)OCCOCn1cnc2c(=O)[nH]c(N)nc21 [valacyclovir]	–	–	–	–	–	–	–	–	–	–	–	–	55%
